Patent publication US12133846B2, “Electrophilic androgen receptor (AR) antagonists for AR downregulation and ferroptosis induction in cancer cells” (priority 2019, dated 2024)

Assays:
[1] = 2-63 releases 12b in aqueous buffer (HPLC); assay type: physicochemical; conditions: PBS buffer; 2-63 50 μM, PBS pH 7.4, 5% acetonitrile, 37° C., from HPLC peak area; read-out: half-life of 2-63 (decomposition, release of free ITC 12b) (converted)
Procedure: NAC conjugate 2-63 gradually releases free ITC 12b under physiological condition. The NAC conjugate of ITC could reversibly form free ITCs in aqueous solution (Zhang, Y., Carcinogenesis 2012, 33, 2-9). To test this possibility on the setting of ITC-ARi, 2-63 (50 μM) was dissolved in PBS at physiological pH (7.4), and its decomposition was monitored at 37° C. using HPLC. […] 2-63, therefore, can be viewed as a more water-soluble prodrug of 12b when it is used in cell culture or administrated in vivo. This NAC conjugation approach avoids acute/instant electrophilic insult and can constrain the concentration of electrophilic ITC within certain levels. Since non-cancerous cells usually have a larger GSH/antioxidant pool to neutralize electrophilic/oxidative attack (Trachootham, et al., Cancer Cell 2006, 10, 241-252), different tolerability to 2-63 could be seen between cancerous and noncancerous cells.
2-63 releases 12b in aqueous buffer. Samples for HPLC analysis were prepared by diluting the stock solution (50 mM in DMSO) of 2-63 in PBS buffer (10 mM, pH 7.4) containing 5% acetonitrile. The sample was immediately analyzed right after dilution. The aliquot of incubated samples (37° C.) was analyzed at indicated time points. A linear plot of the log (peak area) versus incubation time was generated to determine the half-life (T1/2) of decomposition. […]

[2] = system: acetylation of α-tubulin and histone H3 (markers for HDAC6 and nuclear HDAC inhibition); assay: Western blotting of acetylation markers in VCaP cells; assay type: cell-based; conditions: 16 h, 2-63 and 12b 5 and 15 μM, SAHA 1 μM
Procedure: (§1) Western Blotting. […] Proteins in cell lysates (40 μg) were separated using electrophoresis on SDS-PAGE and transferred onto PVDF (polyvinylidenedifluoride) membranes. Membranes were blocked in 5% fat-free milk followed by incubation with primary antibodies overnight at 4° C., and the secondary horseradish peroxidase-conjugated anti-rabbit or anti-mouse antibodies. The blots were developed in the Enhanced Chemiluminescence mixture and detected by ImageQuant™ LAS 4000 imaging system (GE). Density of protein bonds were calculated and analyzed by using imageJ software downloaded from the National Institute of Health website.

FL AR and AR-V7 [3] = target: T1, FL AR and AR-V7 (Homo sapiens, UniProt P10275); assay: Western blotting of FL AR and AR-V7 in VCaP cells; assay type: cell-based; conditions: full media, 16 h, 2-63, 12b 5 and 15 μM, Enz 10 μM, SAHA 1 μM
T1 construct: Whole cell lysates were subjected to Western blotting and probed with the indicated antibodies; endogenous in cells; host or cells: VCaP
T1 sequence (P10275 1-920): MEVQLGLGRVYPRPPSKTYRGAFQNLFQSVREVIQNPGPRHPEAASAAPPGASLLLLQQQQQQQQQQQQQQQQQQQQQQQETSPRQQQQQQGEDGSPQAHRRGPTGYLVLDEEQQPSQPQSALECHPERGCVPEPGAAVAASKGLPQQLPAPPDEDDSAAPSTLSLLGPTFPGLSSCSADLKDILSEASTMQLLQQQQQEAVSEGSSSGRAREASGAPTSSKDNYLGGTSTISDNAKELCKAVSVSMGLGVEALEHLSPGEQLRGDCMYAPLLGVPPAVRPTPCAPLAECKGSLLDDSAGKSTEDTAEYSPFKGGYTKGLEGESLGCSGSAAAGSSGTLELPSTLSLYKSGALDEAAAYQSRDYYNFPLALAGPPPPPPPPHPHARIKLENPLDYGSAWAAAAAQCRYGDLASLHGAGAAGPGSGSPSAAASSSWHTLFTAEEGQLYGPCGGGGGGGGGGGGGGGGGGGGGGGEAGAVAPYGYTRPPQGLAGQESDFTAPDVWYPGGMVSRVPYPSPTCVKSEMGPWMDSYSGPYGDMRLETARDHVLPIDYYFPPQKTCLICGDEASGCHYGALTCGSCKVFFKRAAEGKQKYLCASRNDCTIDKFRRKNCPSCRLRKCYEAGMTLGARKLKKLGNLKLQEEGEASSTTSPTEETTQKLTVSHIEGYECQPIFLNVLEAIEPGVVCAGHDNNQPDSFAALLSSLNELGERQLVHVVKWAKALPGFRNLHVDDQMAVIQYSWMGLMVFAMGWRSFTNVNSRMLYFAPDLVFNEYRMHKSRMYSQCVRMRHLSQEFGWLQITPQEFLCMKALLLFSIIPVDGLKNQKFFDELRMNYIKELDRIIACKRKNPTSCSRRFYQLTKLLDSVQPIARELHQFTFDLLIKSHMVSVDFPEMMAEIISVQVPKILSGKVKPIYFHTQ
Procedure: as §1

FL AR and AR-V7 [4] = target: T2, FL AR and AR-V7 (Homo sapiens, UniProt P10275); assay: Western blotting of FL AR and AR-V7 in VCaP cells; assay type: cell-based; conditions: full media, 16 h, 2-63, 12b 5 and 15 μM, Enz 10 μM
T2 construct: Whole cell lysates were subjected to Western blotting and probed with the indicated antibodies; endogenous in cells; host or cells: VCaP
T2 sequence (P10275 1-644 isoform P10275-3): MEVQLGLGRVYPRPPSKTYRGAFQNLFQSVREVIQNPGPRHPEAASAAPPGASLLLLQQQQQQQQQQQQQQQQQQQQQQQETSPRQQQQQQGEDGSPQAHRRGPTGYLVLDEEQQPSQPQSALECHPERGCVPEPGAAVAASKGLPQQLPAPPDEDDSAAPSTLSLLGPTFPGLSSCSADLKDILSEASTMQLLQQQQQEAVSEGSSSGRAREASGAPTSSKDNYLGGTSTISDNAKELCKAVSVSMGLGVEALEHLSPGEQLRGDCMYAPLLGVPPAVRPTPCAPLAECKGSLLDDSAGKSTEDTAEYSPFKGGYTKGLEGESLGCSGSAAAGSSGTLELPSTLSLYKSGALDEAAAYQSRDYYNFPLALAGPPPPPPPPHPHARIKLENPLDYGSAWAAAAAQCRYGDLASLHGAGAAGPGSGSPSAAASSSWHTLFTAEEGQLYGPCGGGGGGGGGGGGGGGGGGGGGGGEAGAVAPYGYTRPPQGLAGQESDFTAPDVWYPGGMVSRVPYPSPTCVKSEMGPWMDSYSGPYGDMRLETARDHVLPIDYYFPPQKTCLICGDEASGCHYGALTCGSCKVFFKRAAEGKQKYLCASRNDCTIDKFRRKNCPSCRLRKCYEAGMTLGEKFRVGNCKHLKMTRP
Procedure: as §1

FL AR and AR-V7 [5] = assay: Western blotting of FL AR and AR-V7 in VCaP cells; assay type: cell-based; conditions: 10 μM, 12 h time course
Procedure: as §1

## CC(=O)N[C@H](CSC(=S)NCCCCCCc1ccc(N2C(=S)N(c3ccc(C#N)c(C(F)(F)F)c3)C(=O)C2(C)C)cn1)C(=O)O [2-63, N-acetyl-S-((6-(5-(3-(4-cyano-3-(trifluoromethyl)phenyl)-5,5-dimethyl-4-oxo-2-thioxoimidazolidin-1-yl)pyridine-2-yl)hexyl)carbamothioyl)-D-cysteine]
[1]
  half-life at 50 μM: 3.4 h
[2]
  histone H3 acetylation: did not show significant effects
[2]; SFN 15 μM
  α-tubulin acetylation: did not show significant effects
FL AR and AR-V7 [3]
  FL AR expression: dose-dependently decreased
FL AR and AR-V7 [4]
  AR-V7 expression: dose-dependently decreased
FL AR and AR-V7 [5]
  FL AR and AR-V7 in time course: time-dependent decline
